≈ marks a conversion by molar mass, not a printed value. Where two headings read alike, the source gives them in different places.
Assays:
Format in all cases: physicochemical
[1] = Mechanical properties of batches of Solid Form A; details: lots of Solid Form A; A2 and A9 unmilled, A3 and A6/A7 milled
[2] = True density of Solid Form A; details: lots of Solid Form A; A2 and A9 unmilled, A3 and A6/A7 milled
[3] = Particle size of batches of Solid Form A; details: batches of Solid Form A, milled or unmilled per batch
Text: Primary particles from below 100 μm to around 500 μm in size, with soft agglomerates up to several millimeters, were observed. The D[4,3] of this material was 195 μm. This material was subsequently milled, to give far fewer large particles and an overall much smaller average primary particle size, giving a D[4,3] of 49.5 μm. See Table 8 for a comparison of particle size properties of various batches.

[4] = Thermodynamic solubility assessment of Solid Form B; details: for solubility thermodynamic at 24 h: thermodynamic from solid; for solubility thermodynamic at 24 h / XRPD Pattern of residual solid: 24 hours
[5] = VT-XRPD analysis of Solid Form B
Experimental: VT-XRPD analysis was carried out on a Philips X'Pert Pro Multipurpose diffractometer equipped with a temperature chamber. The samples were scanned between 4 and 35.99°2θ using Cu K radiation (α1λ=1.54060 Å; α2=1.54443 Å; β=1.39225 Å; α1:α2 ratio=0.5) running in Bragg-Brentano geometry (step size 0.008°2θ) using 40 kV/40 mA generator settings. Solid Form B was analyzed by VT-XRPD to assess changes in form upon heating. The sample was heated at 10° C./min and diffraction pattern collected at various temperatures (based on TG/DSC data).

[6] = Dynamic vapour sorption (DVS) assessment of Solid Form B
[7] = 7-day stability assessment of Solid Form B; details: 7 days; for HPLC purity (% rel. Area): input purity 100%
Experimental: 15 mg of Solid Form B was weighed into 3×1.5 mL vials. • One vial was left uncapped, placed inside a scintillation vial and stored at ambient conditions (ca. 20° C.). • One vial was left uncapped and placed inside a scintillation vial. This was placed in a stability oven at 40° C./75% RH. • One vial was capped and placed inside a scintillation vial. This was placed inside an oven at 80° C. After 7 days the samples were removed from their respective conditions, analyzed by XRPD and submitted for HPLC analysis.

[8] = VH-XRPD analysis of Solid Form B
Experimental: VH-XRPD analysis was carried out on a Philips X'Pert Pro Multipurpose diffractometer equipped with a humidity chamber. The samples were scanned between 4 and 35.99°2θ using Cu K radiation (α1λ=1.54060 Å; α2=1.54443 Å; β=1.39225 Å; α1:α2 ratio=0.5) running in Bragg-Brentano geometry (step size 0.008°2θ) using 40 kV/40 mA generator settings. Variable humidity XRPD was carried out using the following method: A diffractogram was collected once each targeted % RH was reached and after the reported time had elapsed (Table 14 below). After 20 hours at 2% RH, some P2O5 was introduced within the stage chamber with the aim of further dry the environment. The sample was kept at these conditions for further 16 hours, during which a diffractogram was collected ever hour.

Compound: CC1CN(Cc2ncccn2)CC1c1nc2c(cnn2C2CCOCC2)c(=O)[nH]1 (stereo not shown) [A2]
- Brittle fracture index, Rating [1]: Low
- Brittle fracture index, Value [1]: 0.0486
- Brittle/viscoelastic bonding index (x105), Value [1]: 2.61
- Brittle/viscoelastic bonding index, Rating [1]: Poor
- Compression stress (MPa), Value [1]: 58.8 MPa
- Compression stress, Rating [1]: Moderate
- Compromised Tensile strength (MPa), Value [1]: 0.274 MPa
- Solid fraction, Value [1]: 0.87
- Tensile strength (MPa), Value [1]: 0.3 MPa
- Tensile strength, Rating [1]: Low
- True density (g/cm3), Value [2]: 1.28 g/cm3
- Particle size D[4, 3] [3]: 144 μm
- Particle size D[v, 0.1] [3]: 45.6 µm
- Particle size D[v, 0.9] [3]: 247 µm

Compound: CC1CN(Cc2ncccn2)CC1c1nc2c(cnn2C2CCOCC2)c(=O)[nH]1 (stereo not shown) [A3]
- Brittle fracture index, Rating [1]: Low
- Brittle fracture index, Value [1]: 0.139
- Brittle/viscoelastic bonding index (x105), Value [1]: 8.44
- Brittle/viscoelastic bonding index, Rating [1]: Marginal
- Compression stress (MPa), Value [1]: 67.9 MPa
- Compression stress, Rating [1]: Moderate
- Compromised Tensile strength (MPa), Value [1]: 0.488 MPa
- Solid fraction, Value [1]: 0.857
- Tensile strength (MPa), Value [1]: 0.624 MPa
- Tensile strength, Rating [1]: Moderate
- True density (g/cm3), Value [2]: 1.29 g/cm3
- Particle size D[4, 3] [3]: 60.2 μm
- Particle size D[v, 0.1] [3]: 10.5 µm
- Particle size D[v, 0.9] [3]: 126 µm

Compound: CC1CN(Cc2ncccn2)CC1c1nc2c(cnn2C2CCOCC2)c(=O)[nH]1 (stereo not shown) [A9]
- Brittle fracture index, Rating [1]: Very low
- Brittle fracture index, Value [1]: −0.077
- Brittle/viscoelastic bonding index (x105), Value [1]: 1.95
- Brittle/viscoelastic bonding index, Rating [1]: Poor
- Compression stress (MPa), Value [1]: 52.5 MPa
- Compression stress, Rating [1]: Moderate
- Compromised Tensile strength (MPa), Value [1]: 0.302 MPa
- Dynamic indentation hardness (MPa), Value [1]: 63.6 MPa
- Dynamic indentation hardness [ductility rating], Rating [1]: High
- Solid fraction, Value [1]: 0.85
- Tensile strength (MPa), Value [1]: 0.255 MPa
- Tensile strength, Rating [1]: Very low
- Worst case bonding index (x102), Value [1]: 0.401
- Worst case bonding index, Rating [1]: Moderate
- True density (g/cm3), Value [2]: 1.29 g/cm3
- Particle size D[4, 3] [3]: 195 μm
- Particle size D[v, 0.1] [3]: 20.6 µm
- Particle size D[v, 0.9] [3]: 362 µm

Compound: C[C@@H]1CN(Cc2ncccn2)C[C@H]1c1nc2c(cnn2C2CCOCC2)c(=O)[nH]1 [Solid Form B, 6-((3S,4S)-4-methyl-1-(pyrimidin-2-ylmethyl)pyrrolidin-3-yl)-1-(tetrahydro-2H-pyran-4-yl)-1,5-dihydro-4H-pyrazolo[3,4-d]pyrimidin-4-one]
- Solid form after solubility test (XRPD) ([4]; across the pH range, 25° C.): retained
- solubility thermodynamic at 24 h ([4]; aqueous buffer, pH 4.5 buffer, 25° C., read-out: HPLC conc. (mg/mL), thermodynamic solubility): 162 mg/mL (≈ 411 mM)
- solubility thermodynamic at 24 h ([4]; aqueous buffer, pH 6.8 buffer, 25° C., read-out: HPLC conc. (mg/mL), thermodynamic solubility): 21.8 mg/mL (≈ 55.1 mM)
- solubility thermodynamic at 24 h ([4]; buffer, aqueous buffer, pH 4.5, 25° C., read-out: Thermodynamic solubility): > 150 mg/mL
- XRPD Pattern of residual solid ([4]; pH 1.2 buffer, 25° C.): Solid Form B
- XRPD Pattern of residual solid ([4]; pH 4.5 buffer, 25° C.): Solid Form B
- XRPD Pattern of residual solid ([4]; pH 6.8 buffer, 25° C.): Solid Form B
- solubility thermodynamic at 24 h ([4]; simulated gastric fluid, pH 1.2 buffer, 25° C., read-out: HPLC conc. (mg/mL), thermodynamic solubility): 46.7 mg/mL (≈ 118 mM)
- XRPD (form observed on heating) ([5]; 30 °C, hold 0 mins (last step, after 135 °C)): Solid Form A
- XRPD (form observed on heating) ([5]; 30 °C, hold 0 mins (start), heated at 10 °C/min): Solid Form B
- XRPD (form observed on heating) ([5]; 85 °C, hold 0 mins): Solid Form C
- XRPD (form observed on heating) ([5]; 85 °C, hold 5 mins): Solid Form C
- Solid form observed upon heating (VT-XRPD) ([5]; 130° C.): mixture of Solid Form A and C
- XRPD (form observed on heating) ([5]; 130 °C, hold 0 mins): Solid Form A/C
- Solid form observed upon heating (VT-XRPD) ([5]; 135° C.): consistent with Solid Form A
- XRPD (form observed on heating) ([5]; 135 °C, hold 0 mins): Solid Form A
- XRPD (form observed on heating) ([5]; 135 °C, hold 10 mins): Solid Form A
- Solid form observed upon heating (VT-XRPD) ([5]; heated to 85° C., 10° C./min): Solid Form C
- Uptake (DVS) ([6]; at 80% RH): 4.3 wt. %
- Mass loss on de-sorption/uptake on sorption (DVS) ([6]; between 0 and 10% RH): ca. 2.6 wt. %
- Mass loss on de-sorption/uptake on sorption (DVS), water equivalents ([6]; between 0 and 10% RH): 0.6 eq. water
- Uptake (DVS) ([6]; between 40 and 80% RH, first sorption cycle): 0.2 wt. %
- XRPD form after DVS analysis ([6]; post DVS): consistent with Solid Form B with traces of Solid Form C
- Solid form after storage (XRPD) ([7]; 40° C./75% RH): retained
- XRPD (form after storage) ([7]; 40° C./75% RH): Solid Form B
- HPLC purity (% rel. Area) ([7]; 40° C./75% RH): 100 % rel. Area
- Solid form after storage (XRPD) ([7]; 80° C.): converted to a mixture of Solid Form A and Solid Form C
- HPLC purity (% rel. Area) ([7]; 80° C.): 100 % rel. Area
- XRPD (form after storage) ([7]; Ambient Light): Solid Form B
- HPLC purity (% rel. Area) ([7]; Ambient Light): 100 % rel. Area
- Solid form after storage (XRPD) ([7]; ambient temperature (ca. 20° C.)): retained
- Purity change (HPLC) ([7]; ambient, 40° C./75% RH and 80° C.): no drop in purity
- XRPD (form at variable humidity) ([8]; 2% RH, 0.5 hours): Solid Form B
- XRPD (form at variable humidity) ([8]; 2% RH, 20 hours): Solid Form B
- XRPD (form at variable humidity) ([8]; 10% RH, 1 hour): Solid Form B
- XRPD (form at variable humidity) ([8]; 40% RH, 0 hours (start)): Solid Form B
- XRPD (form at variable humidity) ([8]; 40% RH, 0.5 hours): Solid Form B
- XRPD (form at variable humidity) ([8]; 90% RH, 0.5 hours): Solid Form B
- Change in form under variable humidity (VH-XRPD) ([8]; variable % RH, down to 2% RH and with P2O5): no change in form

— US12012412B2, “Solid forms of pyrazolo[3,4-d]pyrimidine compounds” (Pfizer Inc., priority 2021, dated 2024)
